According to PubChem BioAssay AID256 (DTP/NCI, 2004):
“And” between values parts separate entries of the source, which are not always exact repeats. Equal entries are not always repeated. Inconclusive results and toxic doses are left out.

System: CD2F1 mice, L1210 leukemia ip, survival T/C
Experiment: NCI In Vivo Anticancer Drug Screen. Data for tumor model L1210 Leukemia (intraperitoneal) in CD2F1 (CDF1) mice
Settings: higher = longer survival
In short: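 Mice carrying a transplanted tumor received test compound or vehicle alone. The value is the measurement in the treated group divided by that in the vehicle-treated control group.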

[1] = endpoint: mean survival time, dose: 100.0 mg/kg/injection, schedule: Q04DX003 (ip), vehicle: saline with Tween-80
[2] = endpoint: mean survival time, dose: 200.0 mg/kg/injection, schedule: Q04DX003 (ip), vehicle: saline with Tween-80
[3] = endpoint: mean survival time, dose: 400.0 mg/kg/injection, schedule: Q04DX003 (ip), vehicle: saline with Tween-80

In the case of `CNc1ncn(-c2c(C)cccc2C)c(=O)n1`, the T/C (endpoint: median survival time, dose: 3.12 mg/kg/injection, schedule: Q01DX005 (ip), vehicle: Klucel (hydroxypropylcellulose) (HPC)) is reported as 101 % of control, the T/C (endpoint: median survival time, dose: 6.25 mg/kg/injection, schedule: Q01DX005 (ip), vehicle: Klucel (hydroxypropylcellulose) (HPC)) is reported as 97 % of control and the T/C (endpoint: median survival time, dose: 12.5 mg/kg/injection, schedule: Q01DX005 (ip), vehicle: Klucel (hydroxypropylcellulose) (HPC)) is reported as 102 % of control. For the same compound, the T/C (endpoint: median survival time, dose: 25.0 mg/kg/injection, schedule: Q01DX005 (ip), vehicle: Klucel (hydroxypropylcellulose) (HPC)) was 100 % of control, the T/C (endpoint: median survival time, dose: 50.0 mg/kg/injection, schedule: Q01DX005 (ip), vehicle: Klucel (hydroxypropylcellulose) (HPC)) was 108 % of control and the T/C (endpoint: median survival time, dose: 50.0 mg/kg/injection, schedule: Q01DX005 (ip), vehicle: saline with Tween-80) was 119 % of control and 98 % of control and 102 % of control. For the same compound, the T/C (endpoint: median survival time, dose: 100.0 mg/kg/injection, schedule: Q01DX005 (ip), vehicle: saline with Tween-80) was 123 % of control and 98 % of control and 110 % of control and the T/C (endpoint: median survival time, dose: 200.0 mg/kg/injection, schedule: Q01DX005 (ip), vehicle: saline with Tween-80) was 122 % of control and 107 % of control.

For `CC(=O)OC1OC(C)C(OC(C)=O)C(OC(C)=O)C1NC(=O)N(CCCl)N=O` (centres undefined), the T/C (endpoint: mean survival time, dose: 17.0 mg/kg/injection, schedule: Q01DX001 (ip), vehicle: saline with Tween-80) was 508 % of control, the T/C (endpoint: mean survival time, dose: 26.0 mg/kg/injection, schedule: Q01DX001 (ip), vehicle: saline with Tween-80) was 535 % of control and the T/C (endpoint: mean survival time, dose: 40.0 mg/kg/injection, schedule: Q01DX001 (ip), vehicle: saline with Tween-80) was 389 % of control.

For `COC(=O)C(C)(C)Br`, the T/C [1] was 97 % of control, the T/C [2] was 102 % of control and the T/C [3] was 102 % of control.

`O=C1NCCS1` was tested, and the T/C (endpoint: mean survival time, dose: 75.0 mg/kg/injection, schedule: Q01DX001 (ip), vehicle: saline) was 98 % of control and the T/C (endpoint: mean survival time, dose: 150.0 mg/kg/injection, schedule: Q01DX001 (ip), vehicle: saline) was 104 % of control.

With `CCCCCCCCCCSCC` the T/C (endpoint: mean survival time, dose: 100.0 mg/kg/injection, schedule: Q01DX009 (ip), vehicle: saline) was 101 % of control, the T/C (endpoint: mean survival time, dose: 100.0 mg/kg/injection, schedule: Q04DX003 (ip), vehicle: saline) was 103 % of control and the T/C (endpoint: mean survival time, dose: 200.0 mg/kg/injection, schedule: Q01DX009 (ip), vehicle: saline) was 104 % of control. The T/C (endpoint: mean survival time, dose: 200.0 mg/kg/injection, schedule: Q04DX003 (ip), vehicle: saline) was 103 % of control, the T/C (endpoint: mean survival time, dose: 400.0 mg/kg/injection, schedule: Q01DX009 (ip), vehicle: saline) was 101 % of control and the T/C (endpoint: mean survival time, dose: 400.0 mg/kg/injection, schedule: Q04DX003 (ip), vehicle: saline) was 103 % of control.

For `CCCSCCCC(=O)O`, the T/C (endpoint: mean survival time, dose: 100.0 mg/kg/injection, schedule: Q04DX003 (ip), vehicle: Klucel (hydroxypropylcellulose) (HPC)) was 95 % of control, the T/C (endpoint: mean survival time, dose: 200.0 mg/kg/injection, schedule: Q04DX003 (ip), vehicle: Klucel (hydroxypropylcellulose) (HPC)) was 98 % of control and the T/C (endpoint: mean survival time, dose: 400.0 mg/kg/injection, schedule: Q04DX003 (ip), vehicle: Klucel (hydroxypropylcellulose) (HPC)) was 103 % of control.

For `CN1CCC(C(O)c2ccccc2)CC1` (centres undefined), the T/C [1] was 102 % of control, the T/C [2] was 100 % of control and the T/C [3] was 88 % of control.

`C[n+]1ccc(Nc2ccc(NC(=O)c3ccc(Nc4cc[n+](C)c5ccc(N)cc45)cc3)cc2)cc1` was tested, and the T/C (endpoint: mean survival time, dose: 2.0 mg/kg/injection, schedule: Q01DX009 (ip), vehicle: water) was 313 % of control, the T/C (endpoint: mean survival time, dose: 4.0 mg/kg/injection, schedule: Q01DX009 (ip), vehicle: water) was 341 % of control and the T/C (endpoint: median survival time, dose: 0.25 mg/kg/injection, schedule: Q03HX008 (ip), vehicle: water) was 100 % of control. For the same compound, the T/C (endpoint: median survival time, dose: 0.25 mg/kg/injection, schedule: Q03HX016 (ip), vehicle: water) was 102 % of control, the T/C (endpoint: median survival time, dose: 0.25 mg/kg/injection, schedule: Q03HX024 (ip), vehicle: water) was 110 % of control and the T/C (endpoint: median survival time, dose: 0.5 mg/kg/injection, schedule: Q01DX005 (ip), vehicle: water) was 120 % of control. For the same compound, the T/C (endpoint: median survival time, dose: 0.5 mg/kg/injection, schedule: Q01DX009 (ip), vehicle: water) was 123 % of control, the T/C (endpoint: median survival time, dose: 0.5 mg/kg/injection, schedule: Q01DX009 (sc), vehicle: water) was 96 % of control and the T/C (endpoint: median survival time, dose: 0.5 mg/kg/injection, schedule: Q03HX008 (ip), vehicle: water) was 113 % of control. For the same compound, the T/C (endpoint: median survival time, dose: 0.5 mg/kg/injection, schedule: Q03HX016 (ip), vehicle: water) was 109 % of control, the T/C (endpoint: median survival time, dose: 1.0 mg/kg/injection, schedule: Q01DX009 (sc), vehicle: water) was 101 % of control and the T/C (endpoint: median survival time, dose: 1.0 mg/kg/injection, schedule: Q03HX016 (ip), vehicle: water) was 158 % of control. The T/C (endpoint: median survival time, dose: 1.0 mg/kg/injection, schedule: Q03HX024 (ip), vehicle: water) was 180 % of control, the T/C (endpoint: median survival time, dose: 2.0 mg/kg/injection, schedule: Q01DX001 (ip), vehicle: water) was 103 % of control and the T/C (endpoint: median survival time, dose: 2.0 mg/kg/injection, schedule: Q01DX001 (sc), vehicle: water) was 97 % of control. For the same compound, the T/C (endpoint: median survival time, dose: 2.0 mg/kg/injection, schedule: Q01DX005 (ip), vehicle: water) was 164 % of control, the T/C (endpoint: median survival time, dose: 2.0 mg/kg/injection, schedule: Q01DX009 (ip), vehicle: water) was 274 % of control and the T/C (endpoint: median survival time, dose: 2.0 mg/kg/injection, schedule: Q01DX009 (oral), vehicle: water) was 100 % of control. The T/C (endpoint: median survival time, dose: 2.0 mg/kg/injection, schedule: Q01DX009 (sc), vehicle: water) was 157 % of control, the T/C (endpoint: median survival time, dose: 2.0 mg/kg/injection, schedule: Q03HX008 (ip), vehicle: water) was 157 % of control and the T/C (endpoint: median survival time, dose: 2.0 mg/kg/injection, schedule: Q03HX016 (ip), vehicle: water) was 185 % of control. For the same compound, the T/C (endpoint: median survival time, dose: 2.0 mg/kg/injection, schedule: Q03HX024 (ip), vehicle: water) was 256 % of control, the T/C (endpoint: median survival time, dose: 2.0 mg/kg/injection, schedule: Q04DX003 (ip), vehicle: water) was 113 % of control and the T/C (endpoint: median survival time, dose: 4.0 mg/kg/injection, schedule: Q01DX001 (ip), vehicle: water) was 114 % of control. For the same compound, the T/C (endpoint: median survival time, dose: 4.0 mg/kg/injection, schedule: Q01DX001 (sc), vehicle: water) was 100 % of control, the T/C (endpoint: median survival time, dose: 4.0 mg/kg/injection, schedule: Q01DX005 (ip), vehicle: water) was 252 % of control and the T/C (endpoint: median survival time, dose: 4.0 mg/kg/injection, schedule: Q01DX009 (ip), vehicle: water) was 373 % of control. The T/C (endpoint: median survival time, dose: 4.0 mg/kg/injection, schedule: Q01DX009 (oral), vehicle: water) was 97 % of control, the T/C (endpoint: median survival time, dose: 4.0 mg/kg/injection, schedule: Q01DX009 (sc), vehicle: water) was 241 % of control and the T/C (endpoint: median survival time, dose: 4.0 mg/kg/injection, schedule: Q03HX008 (ip), vehicle: water) was 175 % of control. The T/C (endpoint: median survival time, dose: 4.0 mg/kg/injection, schedule: Q03HX016 (ip), vehicle: water) was 212 % of control, the T/C (endpoint: median survival time, dose: 4.0 mg/kg/injection, schedule: Q03HX024 (ip), vehicle: water) was 321 % of control and the T/C (endpoint: median survival time, dose: 4.0 mg/kg/injection, schedule: Q08DX002 (ip), vehicle: water) was 164 % of control. The T/C (endpoint: median survival time, dose: 8.0 mg/kg/injection, schedule: Q01DX001 (oral), vehicle: water) was 92 % of control, the T/C (endpoint: median survival time, dose: 8.0 mg/kg/injection, schedule: Q01DX001 (sc), vehicle: water) was 105 % of control and the T/C (endpoint: median survival time, dose: 8.0 mg/kg/injection, schedule: Q01DX009 (ip), vehicle: water) was 332 % of control. For the same compound, the T/C (endpoint: median survival time, dose: 8.0 mg/kg/injection, schedule: Q01DX009 (oral), vehicle: water) was 98 % of control, the T/C (endpoint: median survival time, dose: 8.0 mg/kg/injection, schedule: Q01DX009 (sc), vehicle: water) was 307 % of control and the T/C (endpoint: median survival time, dose: 8.0 mg/kg/injection, schedule: Q04DX003 (ip), vehicle: water) was 157 % of control. For the same compound, the T/C (endpoint: median survival time, dose: 16.0 mg/kg/injection, schedule: Q01DX001 (oral), vehicle: water) was 98 % of control, the T/C (endpoint: median survival time, dose: 16.0 mg/kg/injection, schedule: Q01DX001 (sc), vehicle: water) was 121 % of control and the T/C (endpoint: median survival time, dose: 16.0 mg/kg/injection, schedule: Q01DX009 (oral), vehicle: water) was 100 % of control. The T/C (endpoint: median survival time, dose: 16.0 mg/kg/injection, schedule: Q01DX009 (sc), vehicle: water) was 120 % of control, the T/C (endpoint: median survival time, dose: 32.0 mg/kg/injection, schedule: Q01DX001 (oral), vehicle: water) was 96 % of control and the T/C (endpoint: median survival time, dose: 32.0 mg/kg/injection, schedule: Q01DX009 (oral), vehicle: water) was 98 % of control. The T/C (endpoint: median survival time, dose: 64.0 mg/kg/injection, schedule: Q01DX001 (oral), vehicle: water) was 100 % of control, the T/C (endpoint: median survival time, dose: 64.0 mg/kg/injection, schedule: Q01DX001 (sc), vehicle: water) was 208 % of control and the T/C (endpoint: median survival time, dose: 64.0 mg/kg/injection, schedule: Q01DX009 (oral), vehicle: water) was 100 % of control. For the same compound, the T/C (endpoint: median survival time, dose: 128.0 mg/kg/injection, schedule: Q01DX001 (oral), vehicle: water) was 102 % of control and the T/C (endpoint: median survival time, dose: 256.0 mg/kg/injection, schedule: Q01DX001 (oral), vehicle: water) was 92 % of control.

In the case of `COC(=O)C1C2CC(=O)C(C2)C1C(=O)OC` (centres undefined), the T/C (endpoint: mean survival time, dose: 100.0 mg/kg/injection, schedule: Q01DX009 (ip), vehicle: saline with Tween-80) is reported as 93 % of control, the T/C (endpoint: mean survival time, dose: 200.0 mg/kg/injection, schedule: Q01DX009 (ip), vehicle: saline with Tween-80) is reported as 99 % of control and the T/C (endpoint: mean survival time, dose: 400.0 mg/kg/injection, schedule: Q01DX009 (ip), vehicle: saline with Tween-80) is reported as 93 % of control.

For `O=C(c1ccccc1)C1(Br)CCC1`, the T/C [1] was 95 % of control, the T/C [2] was 97 % of control and the T/C [3] was 100 % of control.
